“Also recorded” adds a separate entry of the source.
How the values were obtained:
[1] = test system: soil consortia cultures with corn plant; assay: Phosphate solubilization with corn (foliar spray or soil applied) in soil consortia cultures; format: in vivo, B73 Corn
Description: In order to test the ability of AB09 to stimulate a phosphate solubilization phenotype when applied on plants versus directly into soil, a 3 week old corn plant was introduced into the soil consortia cultures. Approximately two weeks prior to the experiment, corn plants were removed from soil and roots were cleaned of potting soil. […] Corn leaves were sprayed with AB09 (roots protected with foil during spray application) and roots were placed in flasks of NBRIP liquid media and soil inoculant (FIG. 4B). The flasks were placed on a low speed orbital shaker under fluorescent lights and the media supernatant was tested for phosphate concentration after 24 h.
FIG. 4A illustrates that B73 Corn plants were grown until V3 growth stage, removed from soil, rinsed, and placed in tap water for 1.5 weeks to induce nutrient stress FIG. 4B illustrates that plants received either foliar (3 mL/plant using a fingertip sprayer) or soil applied treatments and were placed in 250 mL baffled flasks containing 50 mL NBRIP growth medium ([53 mM] Ca3(PO4)2) and 500 mg of 2 mm particle-sized soil. Flasks with treated corn and sterilized foam caps with were placed on orbital shakers at 100 RPM for 1 day at room temperature under fluorescent lights. FIG. 4C illustrates that orthophosphate was measured using the malachite-green phosphate method. […]

[2] = test system: Bradyrhizobium japonicum; assay: RNASeq gene expression in Bradyrhizobium japonicum; format: cell-based
Protocol: Expression levels for all genes in a nitrogen fixing bacteria (Bradyrhizobium japonicum) were measured in the presence or absence of AB09 using Illumina RNASeq technology.

[3] = test system: nif operon structural genes (nifH, nifD, and nifK); assay: RNA-seq of Azotobacter vinlandii; format: cell-based; conditions: 25 ug/mL, nitrogen free media, 48 h, RNA-seq (FPKM)
Protocol: Global gene expression profiles of Azotobacter vinlandii grown in nitrogen free media were compared with and without AB09 treatment using RNA sequencing (RNA-seq).
A starter liquid culture of A. vinlandii in Burks-N media (at OD600=0.02) was divided into six flasks. Three flasks received AB09 at 25 ug/mL and three received a mock treatment. RNA was collected at 48 h of growth. One mL of 48 h cultures of Azotobacter vinlandii were pelleted for 3 minutes as 13,000 rpm. Supernatant was removed and pellets were flash frozen in liquid nitrogen. RNA was extracted with the Norgen RNA extraction kit. Ribo-depletion and sequencing libraries were constructed by Seqmatic, Inc. (Fremont, CA). Illumina single-end reads of 150 nt were mapped using bowtie (-v 2 -k2 -chunkmbs 3000) to the Azotobacter vinelandii CA (ASM38033v1) cds sequences. Custom perl scripts were used to extract the uniquely mapped reads and calculate the read count per million mapped reads (multi and uniquely mapped) per kilobase of gene for each gene.

[4] = test system: soil consortia cultures; assay: 16S microbiome analysis of soil cultures grown in nitrogen free media; format: cell-based; conditions: Alpha soil culture, 25 ug/mL, 72 h, vs control
Protocol: 16S microbiome analysis was performed on soil-inoculated cultures grown in nitrogen free media in order to compare the effects of AB09 treatment vs control. […] The increased abundance of these diazotrophs in response to AB09 is consistent with the increased nitrogenase activity observed in Table 1 for Alpha soil. […] Known nitrogen fixing bacteria are indicated with an asterisk (*). Soil inoculated cultures (from Alpha Ag soil culture from Table 1) experience an increase in the relative abundance of diazotrophs when treated with AB09. Soil from agricultural areas was air dried and sieved with a 2 mm sieve. Five hundred milligrams of dried, sieved soil was added to 50 mL of nitrogen free media (Burks-N) in a 250 mL baffled flask. AB09 was added to 25 ug/mL and water was added in equivalent amounts for controls. Flasks were topped with a foam plug and incubated at 30 C, shaking at 100 rpm. DNA was extracted from 250 ul of the soil culture after 72 h of growth using the Qiagen PowerSoil Pro Kit (Cat No. 47014). DNA was checked on a gel and Qubit for quality and concentration, respectively. Ten nanograms of DNA was used in the 16S barcoding kit (SQK-RAB204) with the MinION sequencer. Fastq files from MinKnow were uploaded to Epi2Me and the 16S Oxford Nanopore Technologies kit (SQK-RAB204) was selected. […] Read counts were normalized to the total number of reads with an identified barcode.

[5] = test system: wheat; assay: Wheat growth on nitrogen free media with nitrogen fixing bacterium; format: in vivo; conditions: AB09 in combination with a nitrogen fixing bacterium, vs control lacking treatment
Protocol: The ability of the AB09 molecule to control useful soil bacteria metabolism has implications for building integrated technology systems and groundbreaking products. In the lab, AB09 was administered in combination with a nitrogen fixing bacterium to nitrogen free media.

**Q.** Which results are given for `CC1=CC(Oc2c(C)occc2=O)OC1=O` (stereo not drawn) [AB09, maltol lactone]?
**A.** phosphate solubilization, treatment directly applied to the soil supernatant ([1]; corn roots in NBRIP with soil inoculant, after 24 h): increase; phosphate solubilization, treatment applied to corn leaves as a foliar spray ([1]; two treatment doses (25 or 50 ug/mL, 3 mL/plant), media supernatant after 24 h): increase; gene expression (Illumina RNASeq) in presence vs absence of AB09 [2]: induced genetic regulators and pathways for nitrogen fixation and for microaerophilic growth; expression of nif operon structural genes nifH, nifD and nifK over control cultures [3]: increase; abundance of nitrogen fixing bacteria Azotobacter chroococcum and Pseudomonas stutzeri [4]: increased the abundance; wheat growth on nitrogen free media [5]: substantially greater; also recorded: more robust growth
